For this experiment, the system named is Plasmodium berghei. The experiment can be described thus: Luciferase/luciferin-expressing antifolate-resistant parasites were used to infect a culture of HepG2 cells that were pre-incubated with compounds. Infected hepatocytes emit light due to the luciferase reaction. Assay results are presented as the percent inhibition of light emission compared to control. […]. It is filed as functional. The note with it: sporozoite; for IC90: read-out: LUCIFERASE INFECTION ASSAY - IC90.

The mark [1] stands for this setting: read-out: LUCIFERASE INFECTION ASSAY - IC50.

pIC50: −log10 of the molar value. Bounds are passed on as bounds.

As to `CCOc1c(Cl)cc(C2CC(=O)N(Cc3ccccc3)c3nc4ccccc4n32)cc1OC` (stereo not given), the IC90 was > 10 µM. For the same compound, the pIC50 (HEPG2TOX_HILL_SLOPE 5.74, HEPG2TOX_R_SQUARED 0.547, PBLUC_HILL_SLOPE 2.97, PBLUC_R_SQUARED 0.551, read-out: LUCIFERASE INFECTION ASSAY - IC50) is 5.30.

With `Cc1cc(/C=N/Nc2ccccc2[N+](=O)[O-])c(C)n1CC(C)C`, the IC90 amounted to 8.36 µM. Further, the pIC50 (PBLUC_HILL_SLOPE 1.12, PBLUC_R_SQUARED 0.805, read-out: LUCIFERASE INFECTION ASSAY - IC50) was 5.93.

Take `CC(C)(C)c1ccc(-c2cc(NC(=O)c3ccc(Cl)cc3Cl)[nH]n2)cc1`: the IC90 was 3.08 µM. Also, the pIC50 (HEPG2TOX_HILL_SLOPE 2.82, HEPG2TOX_R_SQUARED 0.976, PBLUC_HILL_SLOPE 3.98, PBLUC_R_SQUARED 0.745, read-out: LUCIFERASE INFECTION ASSAY - IC50) was 5.75.

Take `Cc1nc2c(/C(N)=N/OCc3cccc(Cl)c3)cnn2c(C)c1C`: the IC90 was > 9.6 µM. For the same compound, the pIC50 under setting [1] was < 5.02.

On to `CCCc1cc(=O)n(-c2ccc(Cl)cc2)[nH]1`, for which the IC90 is 5.8 µM. Besides, under “FFLUC_HILL_SLOPE 16.5, FFLUC_R_SQUARED 0.266, HEPG2TOX_HILL_SLOPE 6.52, HEPG2TOX_R_SQUARED 0.85, PBLUC_HILL_SLOPE 14.3, PBLUC_R_SQUARED 0.712, read-out: LUCIFERASE INFECTION ASSAY - IC50”, the pIC50 is 5.30.

For the compound `CN(C)c1ccc(NC(=O)CCc2nc(-c3ccc(Cl)cc3)no2)c(C#N)c1Cl`, the IC90 was > 7.67 µM. Besides, the pIC50 (HEPG2TOX_HILL_SLOPE 10.4, HEPG2TOX_R_SQUARED 0.728, PBLUC_HILL_SLOPE 0.523, PBLUC_R_SQUARED 0.342, read-out: LUCIFERASE INFECTION ASSAY - IC50) was < 5.12.

Turning to `CN(C)CCNC(=O)c1ccc(-c2cn3c(-c4ccsc4)cnc3cn2)cc1`, the IC90 is > 8.43 µM. Also, under setting [1], the pIC50 was < 5.07.

Regarding `CCN1C(=O)N(CC(N)=O)C(=O)C12CCN(Cc1ccc(N(C)c3ccccc3)cc1)CC2`, the 90% effect concentration (IC90) is > 7.34 µM. The pIC50 (HEPG2TOX_HILL_SLOPE 2.17, HEPG2TOX_R_SQUARED 0.96, PBLUC_HILL_SLOPE 2.1, PBLUC_R_SQUARED 0.458, read-out: LUCIFERASE INFECTION ASSAY - IC50) is 5.49.

For the compound `COC(=O)c1cnc(Sc2n[nH]c(=O)n2-c2ccc(Cl)cc2)c([N+](=O)[O-])c1`, the IC90 was > 8.09 µM. The negative logarithm of the IC50 (pIC50) under setting [1] was < 5.09.

As to `FC(F)(F)c1cnc(N/N=C/c2cccs2)c(Cl)c1`, the IC90 is 10.6 µM. Further, under “HEPG2TOX_HILL_SLOPE 9.1, HEPG2TOX_R_SQUARED 0.955, PBLUC_HILL_SLOPE 28.7, PBLUC_R_SQUARED 0.321, read-out: LUCIFERASE INFECTION ASSAY - IC50”, the pIC50 was 5.01.

In the case of `CNS(=O)(=O)c1cc(C(=O)OCc2ccc(-c3ccccc3C#N)cc2)n(C)c1`, the IC90 is > 10 µM. In addition, the pIC50 (HEPG2TOX_HILL_SLOPE 9.24, HEPG2TOX_R_SQUARED 0.528, PBLUC_HILL_SLOPE 2.62, PBLUC_R_SQUARED 0.748, read-out: LUCIFERASE INFECTION ASSAY - IC50) was 5.27.

On to `CN(C)CCNc1cc(-c2cccs2)nc2ccccc12`, for which the IC90 is 4.22 µM. The pIC50 (HEPG2TOX_HILL_SLOPE 9.05, HEPG2TOX_R_SQUARED 0.795, PBLUC_HILL_SLOPE 12.9, PBLUC_R_SQUARED 0.598, read-out: LUCIFERASE INFECTION ASSAY - IC50) was 5.45.

On to `Cc1nn(C)c2nc(-c3ccco3)cc(C(=O)Nc3ccnn3Cc3ccc(Cl)cc3Cl)c12`, for which the IC90 was > 10 µM. The pIC50 (FFLUC_HILL_SLOPE 11.1, FFLUC_R_SQUARED 0.205, read-out: LUCIFERASE INFECTION ASSAY - IC50) was < 5.00.

For the compound `COc1ccc(OC)c(CSc2nnc(Nc3cccc(F)c3)s2)c1`, the IC90 is > 10 µM. The pIC50 under setting [1] was < 5.00.

Consider `FC(F)(F)Oc1ccc(Nc2n[nH]c(=S)s2)cc1`, for which the IC90 came to 5 µM. Further, under “FFLUC_HILL_SLOPE 16.2, FFLUC_R_SQUARED 0.24, PBLUC_HILL_SLOPE 2.38, PBLUC_R_SQUARED 0.611, read-out: LUCIFERASE INFECTION ASSAY - IC50”, the pIC50 is 5.70.

For the compound `CCOc1cc2c(cc1CN(Cc1nc(=O)c3cc(-c4ccccc4)sc3[nH]1)Cc1nc(=O)c3cc(-c4ccccc4)sc3[nH]1)OC(C)C2` (stereo not given), the IC90 was > 10 µM. In addition, the pIC50 under setting [1] is < 5.00.

For the compound `CC(C)CCNC(=O)C(=Cc1ccc(Oc2ccc(C(C)(C)C)cc2)c([N+](=O)[O-])c1)C(=O)NCCC(C)C`, the IC90 is > 10 µM. Also, the pIC50 (FFLUC_HILL_SLOPE 15.8, FFLUC_R_SQUARED 0.198, HEPG2TOX_HILL_SLOPE 15.2, 3.81, HEPG2TOX_R_SQUARED 0.607, 0.996, PBLUC_HILL_SLOPE 2.43, PBLUC_R_SQUARED 0.694, read-out: LUCIFERASE INFECTION ASSAY - IC50) is 5.35.

For the compound `CC(=O)n1c(Nc2ccc(F)cc2)c(Sc2ccccc2[N+](=O)[O-])c2ccccc2c1=O`, the IC90 was > 10 µM. Besides, under setting [1], the pIC50 is 5.23.

Turning to `CC(C(OC(=O)c1ccc(S(=O)(=O)N(C)C)cc1)c1ccccc1)N(C)S(=O)(=O)c1ccc(Cl)cc1` (stereo not given), the IC90 is > 10 µM. Besides, the pIC50 (FFLUC_HILL_SLOPE 14.7, FFLUC_R_SQUARED 0.389, PBLUC_HILL_SLOPE 2.36, PBLUC_R_SQUARED 0.776, read-out: LUCIFERASE INFECTION ASSAY - IC50) was 5.14.

On to `C=CCn1c(N)c(-c2nc3ccccc3[nH]2)c2nc3ccccc3nc21`, for which the IC90 is > 9.69 µM. Also, where the note is “PBLUC_HILL_SLOPE 3.6, PBLUC_R_SQUARED 0.636, read-out: LUCIFERASE INFECTION ASSAY - IC50”, the pIC50 is 5.22.

In the case of `CC(=O)c1ccccc1NC(=O)CNc1ccccc1N(C)Cc1ccccc1`, the IC90 was > 10 µM. The pIC50 (PBLUC_HILL_SLOPE 3.51, PBLUC_R_SQUARED 0.275, read-out: LUCIFERASE INFECTION ASSAY - IC50) was 5.09.

With `CC(C)S(=O)(=O)c1csc(NC(=O)Nc2cccc(Cl)c2)c1`, the IC90 is > 9.2 µM. Further, for the setting “PBLUC_HILL_SLOPE 17.1, PBLUC_R_SQUARED 0.0949, read-out: LUCIFERASE INFECTION ASSAY - IC50”, the pIC50 was 5.06.

With `Cc1cc(C(=O)COC(=O)c2ccccc2O)c(C)n1CC1CCCO1` (stereo not given), the IC90 was found to be 7.71 µM. The pIC50 (PBLUC_HILL_SLOPE 2.39, PBLUC_R_SQUARED 0.567, read-out: LUCIFERASE INFECTION ASSAY - IC50) was 5.51.

For the compound `CC(C)c1c(C(=O)NNC(=O)c2ccc3ccccc3n2)cnn1-c1ccccc1`, the IC90 turned out to be 3.77 µM. In addition, the pIC50 (HEPG2TOX_HILL_SLOPE 12.8, HEPG2TOX_R_SQUARED 0.528, PBLUC_HILL_SLOPE 15.6, PBLUC_R_SQUARED 0.425, read-out: LUCIFERASE INFECTION ASSAY - IC50) was 5.48.

As to `Cn1c(-c2ccc(Cl)cc2)csc1=Nc1ccc(Cl)c(Cl)c1`, the IC90 stood at 3.46 µM. Besides, the pIC50 (FFLUC_HILL_SLOPE 8.54, FFLUC_R_SQUARED 0.841, PBLUC_HILL_SLOPE 1.64, PBLUC_R_SQUARED 0.468, read-out: LUCIFERASE INFECTION ASSAY - IC50) is 6.04.

As for `CCOCCSc1nc(-c2ccccc2)c(-c2ccccc2)[nH]1`, the IC90 was > 10 µM. Further, the pIC50 (HEPG2TOX_HILL_SLOPE 2.32, HEPG2TOX_R_SQUARED 0.811, read-out: LUCIFERASE INFECTION ASSAY - IC50) was < 5.00.

For the compound `COc1ccc(Cc2nccc3cc(OC)c(OC)cc23)cc1OC` [PAPAVERINE], the IC90 was > 8.78 µM. In addition, the pIC50 under setting [1] was < 5.06.

Regarding `CC(C)c1ccccc1NC(=O)Nc1nc(C(N)Cc2ccc(Cl)cc2)cs1` (stereo not given), the IC90 was > 7.95 µM. For the same compound, the pIC50 (PBLUC_HILL_SLOPE 4.88, PBLUC_R_SQUARED 0.323, read-out: LUCIFERASE INFECTION ASSAY - IC50) was 5.29.

With `O=c1c2ccccc2nc(SCc2cn3cc(Cl)ccc3n2)n1-c1ccccc1F`, the IC90 is > 10 µM. In addition, the pIC50 (PBLUC_HILL_SLOPE 16.9, PBLUC_R_SQUARED 0.0163, read-out: LUCIFERASE INFECTION ASSAY - IC50) was 5.05.

On to `O=C(Nc1cccc(Cl)c1)C1CCN(c2ccc(C(F)(F)F)cn2)CC1`, for which the IC90 was > 8.6 µM. Also, the pIC50 (FFLUC_HILL_SLOPE 11.3, FFLUC_R_SQUARED 0.5, read-out: LUCIFERASE INFECTION ASSAY - IC50) was < 5.07.

In the case of `COc1cc(NC(=O)c2ccc([N+](=O)[O-])o2)cc(C(F)(F)F)c1`, the IC90 is > 9.99 µM. Under setting [1], the pIC50 is < 5.00.

`O=C(c1[nH]c2ccccc2c1-c1ccccc1)N1CCOCC1`: the IC90 was 8.74 µM. Also, the pIC50 (HEPG2TOX_HILL_SLOPE 1.63, HEPG2TOX_R_SQUARED 0.942, PBLUC_HILL_SLOPE 2.32, PBLUC_R_SQUARED 0.78, read-out: LUCIFERASE INFECTION ASSAY - IC50) is 5.47.

For the compound `COCCCN1C(=O)N(Cc2ccccc2)C(=O)C12CCN(Cc1cccc(C(F)(F)F)c1)CC2`, the concentration for an effect of 90% (IC90) is > 6.74 µM. For the same compound, where the note is “HEPG2TOX_HILL_SLOPE 5.47, HEPG2TOX_R_SQUARED 0.316, read-out: LUCIFERASE INFECTION ASSAY - IC50”, the pIC50 was < 5.17.

On to `COc1cccc(-c2nccc3n[nH]c(-c4cccc(OC(F)(F)F)c4)c23)c1`, for which the IC90 is > 10 µM. Further, for the setting “FFLUC_HILL_SLOPE 1.32, FFLUC_R_SQUARED 0.557, read-out: LUCIFERASE INFECTION ASSAY - IC50”, the pIC50 is < 5.00.

With `CC(Sc1nncs1)C(=O)Nc1cc([N+](=O)[O-])ccc1Cl` (stereo not given), the 90% effect concentration (IC90) was > 10 µM. Further, the pIC50 under setting [1] is < 5.00.

The values are drawn from ChEMBL document CHEMBL4483862, “Open-source discovery of chemical leads for next-generation chemoprotective antimalarials” (2018).
